In patent US11319299B2, “Substituted carboxamides as inhibitors of WDR5 protein-protein binding” (PROPELLON THERAPEUTICS INC., priority 2016, dated 2022):

target: WDR5 (Homo sapiens (Human), UniProt P61964); experiment: Surface Plasmon Resonance (SPR) assay, KD and residence time; format: binding; details: surface plasmon resonance (SPR) assay; read-out: WDR5 binding affinity (KD)

| Kd | Compound |
| --- | --- |
| 9.53 nM | COCCOc1ccc(-c2cc(NC(=O)c3cn(C)c(=O)cc3C(F)(F)F)c(N3C[C@@H](C)N(C)[C@@H](C)C3)cc2F)cn1 [Example 209, N-(4-fluoro-5-(6-(2-methoxyethoxy)pyridin-3-yl)-2-((3S,5R)-3,4,5-trimethylpiperazin-1-yl)phenyl)-1-methyl-6-oxo-4-(trifluoromethyl)-1,6-dihydropyridine-3-carboxamide] |
| 17.9 nM | CC1CN(c2cc(F)c(-c3cnc(N4CCOCC4)nc3)cc2NC(=O)c2ccccc2)CCN1C (stereo in doubt) [Example 78, N-[4-fluoro-5-(2-morpholin-4-ylpyrimidin-5-yl)-2-[(3R)-3,4-dimethylpiperazin-1-yl]phenyl]benzamide] |
| 2.35 nM | CC1CN(c2cc(F)c(-c3cnc(N4CCOC(C)(C)C4)nc3)cc2NC(=O)c2c[nH]c(=O)cc2C(F)(F)F)CCN1C (stereo in doubt) [Example 349, N-[5-[2-(2,2-dimethylmorpholin-4-yl)pyrimidin-5-yl]-4-fluoro-2-[(3R)-3,4-dimethylpiperazin-1-yl]phenyl]-6-oxo-4-(trifluoromethyl)-1H-pyridine-3-carboxamide] |
| 4.06 nM | C[C@@H]1CN(c2cc(F)c(-c3ccc(N4CCCC4)cc3)cc2NC(=O)c2c[nH]c(=O)cc2C(F)(F)F)C[C@H](C)N1C [Example 114, N-[4-fluoro-5-(4-pyrrolidin-1-ylphenyl)-2-[(3R,5S)-3,4,5-trimethylpiperazin-1-yl]phenyl]-6-oxo-4-(trifluoromethyl)-1H-pyridine-3-carboxamide] |
| 83.5 nM | C[C@H]1CN(c2cc(F)c(-c3cnc(N4CCOCC4)nc3)cc2NC(=O)c2ccc(F)cc2C(F)(F)F)C[C@H](C)N1C (racemic) [Example 387, 4-fluoro-N-[4-fluoro-5-(2-morpholin-4-ylpyrimidin-5-yl)-2-[(3R,5R)-3,4,5-trimethylpiperazin-1-yl]phenyl]-2-(trifluoromethyl)benzamide] |
| 33.4 nM | CC1CN(c2cc(F)c(-c3cnc(N4CCOCC4)nc3)cc2NC(=O)c2cnn(C)c2)CCN1C (stereo in doubt) [Example 121, N-[4-fluoro-5-(2-morpholin-4-ylpyrimidin-5-yl)-2-[(3R)-3,4-dimethylpiperazin-1-yl]phenyl]-1-methylpyrazole-4-carboxamide] |
| 3000 nM | CN1CCN(c2cc(F)c(-c3cnc(N4CCOCC4)nc3)cc2NC(=O)c2c[nH]c(=O)cc2C(F)(F)F)CC1(C)C [Example 225, N-[4-fluoro-5-(2-morpholin-4-ylpyrimidin-5-yl)-2-(3,3,4-trimethylpiperazin-1-yl)phenyl]-6-oxo-4-(trifluoromethyl)-1H-pyridine-3-carboxamide] |
| 66.1 nM | CN(C)C1CCN(c2cc(F)c(-c3cnc(N4CCOCC4)nc3)cc2NC(=O)c2c[nH]c(=O)cc2C(F)(F)F)CC1 [Example 258, N-[2-[4-(dimethylamino)piperidin-1-yl]-4-fluoro-5-(2-morpholin-4-ylpyrimidin-5-yl)phenyl]-6-oxo-4-(trifluoromethyl)-1H-pyridine-3-carboxamide] |
| 4.43 nM | C[C@@H]1CN(c2cc(F)c(-c3cnc(N4CCOCC4)nc3)cc2NC(=O)c2n[nH]c(=O)cc2C(F)(F)F)C[C@H](C)N1C [Example 77, N-[4-fluoro-5-(2-morpholin-4-ylpyrimidin-5-yl)-2-[(3R,5S)-3,4,5-trimethylpiperazin-1-yl]phenyl]-6-oxo-4-(trifluoromethyl)-1H-pyridazine-3-carboxamide] |

| Compound | Kd |
| --- | --- |
| C[C@@H]1CN(c2cc(F)c(C3=CCN(C(=O)Oc4ccccc4)CC3)cc2NC(=O)c2c[nH]c(=O)cc2C(F)(F)F)C[C@H](C)N1C [Example 288, phenyl 4-[2-fluoro-5-[[6-oxo-4-(trifluoromethyl)-1H-pyridine-3-carbonyl]amino]-4-[(3R,5S)-3,4,5-trimethylpiperazin-1-yl]phenyl]-3,6-dihydro-2H-pyridine-1-carboxylate] | 1.11 nM |

same assay, conditions: surface plasmon resonance (SPR); read-out: WDR5 binding affinity (KD)

| Compound | Kd |
| --- | --- |
| C[C@@H]1CN(c2cc(F)c(-c3ncc(C(=O)N4CCN(C)CC4)s3)cc2NC(=O)c2c[nH]c(=O)cc2C(F)(F)F)C[C@H](C)N1C [Example 501, N-[4-fluoro-5-[5-(4-methylpiperazine-1-carbonyl)-1,3-thiazol-2-yl]-2-[(3R,5S)-3,4,5-trimethylpiperazin-1-yl]phenyl]-6-oxo-4-(trifluoromethyl)-1H-pyridine-3-carboxamide] | 3.44 nM |
| C[C@@H]1CN(c2cc(F)c(C3=CCCN(c4ncc(C=O)cn4)C3)cc2NC(=O)c2c[nH]c(=O)cc2C(F)(F)F)C[C@H](C)N1C [Example 409, N-[4-fluoro-5-[1-(5-formylpyrimidin-2-yl)-3,6-dihydro-2H-pyridin-5-yl]-2-[(3R,5S)-3,4,5-trimethylpiperazin-1-yl]phenyl]-6-oxo-4-(trifluoromethyl)-1H-pyridine-3-carboxamide] | 0.229 nM |
| C[C@@H]1CN(c2cc(F)c(C3=CCN(c4ncc(C#N)cn4)CC3)cc2NC(=O)c2c[nH]c(=O)cc2C(F)(F)F)C[C@H](C)N1C [Example 404, N-[5-[1-(5-cyanopyrimidin-2-yl)-3,6-dihydro-2H-pyridin-4-yl]-4-fluoro-2-[(3R,5S)-3,4,5-trimethylpiperazin-1-yl]phenyl]-6-oxo-4-(trifluoromethyl)-1H-pyridine-3-carboxamide] | 1 nM |

Second part, the compound after the results:

| Kd | Compound |
| --- | --- |
| 1.31 nM | CC1CN(c2cc(F)c(-c3ccnc(N4CCOCC4)n3)cc2NC(=O)c2c[nH]c(=O)cc2C(F)F)CCN1C (stereo in doubt) [Example 720, 4-(difluoromethyl)-N-[4-fluoro-5-(2-morpholin-4-ylpyrimidin-4-yl)-2-[(3R)-3,4-dimethylpiperazin-1-yl]phenyl]-6-oxo-1H-pyridine-3-carboxamide] |
| 4.18 nM | CC1CN(c2cc(F)c(-c3nccc(N4CCOCC4)n3)cc2NC(=O)c2c[nH]c(=O)cc2C(F)(F)F)CCN1C (stereo in doubt) [Example 599, N-[4-fluoro-5-(4-morpholin-4-ylpyrimidin-2-yl)-2-[(3R)-3,4-dimethylpiperazin-1-yl]phenyl]-6-oxo-4-(trifluoromethyl)-1H-pyridine-3-carboxamide] |
| 0.6 nM | C[C@@H]1CN(c2cc(F)c(-c3ccc(C(N)=O)c(F)c3)cc2NC(=O)c2c[nH]c(=O)cc2C(F)(F)F)C[C@H](C)N1C [Example 551, N-[5-(4-carbamoyl-3-fluorophenyl)-4-fluoro-2-[(3R,5S)-3,4,5-trimethylpiperazin-1-yl]phenyl]-6-oxo-4-(trifluoromethyl)-1H-pyridine-3-carboxamide] |
| 1.93 nM | C[C@@H]1CN(c2cc(F)c(-c3cc(F)c(C(N)=O)c(F)c3)cc2NC(=O)c2c[nH]c(=O)cc2C(F)F)C[C@H](C)N1C [Example 659, N-[5-(4-carbamoyl-3,5-difluorophenyl)-4-fluoro-2-[(3R,5S)-3,4,5-trimethylpiperazin-1-yl]phenyl]-4-(difluoromethyl)-6-oxo-1H-pyridine-3-carboxamide] |
| 66.9 nM | CC1CN(c2cc(F)c(-c3cc(C(N)=O)c(F)cc3F)cc2NC(=O)c2ccc(F)cc2C(F)(F)F)CCN1C (stereo in doubt) [Example 635, 2,4-difluoro-5-[2-fluoro-5-[[4-fluoro-2-(trifluoromethyl)benzoyl]amino]-4-[(3R)-3,4-dimethylpiperazin-1-yl]phenyl]benzamide] |
| 7.44 nM | CNC1CCN(c2cc(F)c(-c3cnc(N4CCOCC4)nc3)cc2NC(=O)c2c[nH]c(=O)cc2C(F)(F)F)CC1 [Example 541, N-[4-fluoro-2-[4-(methylamino)piperidin-1-yl]-5-(2-morpholin-4-ylpyrimidin-5-yl)phenyl]-6-oxo-4-(trifluoromethyl)-1H-pyridine-3-carboxamide] |
| 151 nM | C[C@@H]1CN(c2cc(F)c(-c3ccc(C(=O)NC(C)(C)CC(C)(C)C)c(F)c3F)cc2NC(=O)c2ccc(F)cc2C(F)(F)F)C[C@H](C)N1C [Example 665, 2,3-difluoro-4-[2-fluoro-5-[[4-fluoro-2-(trifluoromethyl)benzoyl]amino]-4-[(3R,5S)-3,4,5-trimethylpiperazin-1-yl]phenyl]-N-(2,4,4-trimethylpentan-2-yl)benzamide] |
| 4 nM | C[C@@H]1CN(c2ccc(-c3cc(NC(=O)c4cn(C)c(=O)cc4C(F)F)c(N4CCN(C)[C@@H](C)C4)cc3F)cn2)CCO1 [Example 516, 4-(difluoromethyl)-N-[4-fluoro-2-[(3S)-3,4-dimethylpiperazin-1-yl]-5-[6-[(2R)-2-methylmorpholin-4-yl]pyridin-3-yl]phenyl]-1-methyl-6-oxopyridine-3-carboxamide] |
| 6.28 nM | CC1CN(c2cc(F)c(C3=CCCN(c4ncc(C#N)s4)C3)cc2NC(=O)c2ccc(F)cc2C(F)(F)F)CCN1C (stereo in doubt) [Example 689, N-[5-[1-(5-cyano-1,3-thiazol-2-yl)-3,6-dihydro-2H-pyridin-5-yl]-4-fluoro-2-[(3R)-3,4-dimethylpiperazin-1-yl]phenyl]-4-fluoro-2-(trifluoromethyl)benzamide] |
| 0.779 nM | C[C@@H]1CN(c2ccc(-c3cc(NC(=O)c4c[nH]c(=O)cc4C(F)F)c(N4C[C@@H](C)N(C)[C@@H](C)C4)cc3F)cn2)C[C@H](C)O1 [Example 511, 4-(difluoromethyl)-N-[4-fluoro-5-[6-[(2R,6S)-2,6-dimethylmorpholin-4-yl]pyridin-3-yl]-2-[(3R,5S)-3,4,5-trimethylpiperazin-1-yl]phenyl]-6-oxo-1H-pyridine-3-carboxamide] |
| 1.06 nM | CC1CN(c2cc(F)c(-c3ccnc(N4CCOCC4)n3)cc2NC(=O)c2ccc(F)cc2C(F)F)CCN1C (stereo in doubt) [Example 655, 2-(difluoromethyl)-4-fluoro-N-[4-fluoro-5-(2-morpholin-4-ylpyrimidin-4-yl)-2-[(3R)-3,4-dimethylpiperazin-1-yl]phenyl]benzamide] |
| 253 nM | CN(CC1CC1)[C@@H]1CCN(c2cc(F)c(-c3cnc(N4CCOCC4)nc3)cc2NC(=O)c2cn(C)c(=O)cc2C(F)(F)F)C1 [Example 587, N-[4-fluoro-5-(2-morpholin-4-ylpyrimidin-5-yl)-2-[(3R)-3-[cyclopropylmethyl(methyl)amino]pyrrolidin-1-yl]phenyl]-1-methyl-6-oxo-4-(trifluoromethyl)pyridine-3-carboxamide] |
